Experimental data: US8980223B2, “Methods of preventing ischemic injury using peripheral nociceptive stimulation” (University of Cincinnati, priority 2009, dated 2015)
Entries after “also recorded” stand apart in the source; their conditions may differ.

What was measured:
[1] = system: peripheral C-fiber nociceptors; test: Lidocaine before remote electrical stimulation and ischemia/reperfusion, infarct size; format: in vivo, mice; conditions: 2% lidocaine, 10 μl s.c., prior to electrical stimulation and ischemia; compared with vehicle ES
Description: (§1) A previously described mouse model of ischemia and reperfusion (I/R) injury in vivo was used (Ren et al. (2004) J. Surg Res. 121(1):120-129; Fan et al (2005)Circulation 111(14):1792-1799; Zhou et al (2007)Cardiovascular Research 75(3) 487-497; and Diwan et a/(2007) J. Clinical Investigation 117(10):2825-2833, herein incorporated by reference in their entirety). Mice were anesthetized with sodium pentobarbital (90 mg/kg ip), intubated with PE 90 tubing and ventilated using a mouse miniventilator (Harvard Apparatus, Holliston, Mass.). All mice were continuously monitored by electrocardiography (ECG) (DigiMed Sinus Rhythm Analyzer, Micro-Med Inc), and mice without evidence of ischemia and timely reperfusion were excluded from the studies. […]
(§2) Mice were euthanized either 4 or 24 hours after reperfusion and infarct size determination and imaging were performed by previously described methods (Ren et al. (2004) J. Surg Res. 121(1):120-129 and Guo et al (1998) Am J. Physiology 275(4 Pt 2):H1375-1387, herein incorporated by reference in their entirety). […] Infarct size was determined by the method of Fishbein et al (1981) Am Heart J 101(5):593-600, herein incorporated by reference in its entirety. […]

[2] = system: β-adrenergic receptor; parameters: species or system mice; conditions: mouse, in vivo
Description: The mice then underwent either sham treatment or electrical stimulation (ES) followed by the ischemia/reperfusion procedure.
A lateral thoracotomy (1.5 cm incision between the second and third ribs was performed to provide exposure of the left anterior descending coronary artery (LAD). Vascular bundles in the vicinity were coagulated using a microcoagulator (Medical Industries Inc, St. Petersburg Fla.). An 8-O nylon suture was placed around the LAD 2-3 mm from the tip of the left auricle and a piece of soft silicon tubing (0.64 mm ID, 1.19 mm OD) was placed over the artery. Coronary occlusion was achieved by tightening and tying the suture. Coronary occlusion was for 45 minutes, unless indicated otherwise. At the end of the occlusion, the suture was untied and left in place. Ischemia was confirmed by visual observation of cyanosis and by continuous ECG monitoring (QRS complex widening, T wave inversion and ST segment changes); reperfusion was confirmed by reversal of these effects. […]

[3] = system: protein kinase C(PKC); test: Chelerythrine before electrical stimulation and ischemia/reperfusion, infarct size; format: in vivo, mice; conditions: chelerythrine plus electrical stimulation compared with vehicle alone plus electrical stimulation
Excerpt: FIG. 3C presents data from wild-type mice treated with chelerythrine prior to sham treatment or electrical stimulation followed by the ischemia/reperfusion procedure. Chelerythrine is a relatively selective general protein kinase C(PKC) inhibitor. Most previously described forms of preconditioning or postconditioning require PKC activation in cardiomyocytes. Typically this is indicative of activation and/or repression of specific PKC isoforms in the hearts. Infarct size as a percentage of risk region was assessed and is indicated. The hatched bar presents data from mice treated with chelerythrine and subject to sham treatment (chelerythrine control). The dotted bar presents data from mice treated with vehicle alone and electrically stimulated (vehicle ES). […]
as §1, with “Mice were anesthetized with sodium pentobarbital (90 mg/kg ip), intubated with PE 90 tubing and ventilated using a mouse miniventilator (Harvard Apparatus, Holliston, Mass.).” left out

[4] = biological target: T1, TRPV2 (Mus musculus, UniProt Q9WTR1); test: Topical probenecid in mouse ischemia/reperfusion model, infarct size; format: in vivo, mice; conditions: topical probenecid application versus control animals; p<0.07
T1 construct: mice that received topical probenecid application; from tissue; host or cells: living mice (topical application to skin)
T1 sequence (Q9WTR1 1-756): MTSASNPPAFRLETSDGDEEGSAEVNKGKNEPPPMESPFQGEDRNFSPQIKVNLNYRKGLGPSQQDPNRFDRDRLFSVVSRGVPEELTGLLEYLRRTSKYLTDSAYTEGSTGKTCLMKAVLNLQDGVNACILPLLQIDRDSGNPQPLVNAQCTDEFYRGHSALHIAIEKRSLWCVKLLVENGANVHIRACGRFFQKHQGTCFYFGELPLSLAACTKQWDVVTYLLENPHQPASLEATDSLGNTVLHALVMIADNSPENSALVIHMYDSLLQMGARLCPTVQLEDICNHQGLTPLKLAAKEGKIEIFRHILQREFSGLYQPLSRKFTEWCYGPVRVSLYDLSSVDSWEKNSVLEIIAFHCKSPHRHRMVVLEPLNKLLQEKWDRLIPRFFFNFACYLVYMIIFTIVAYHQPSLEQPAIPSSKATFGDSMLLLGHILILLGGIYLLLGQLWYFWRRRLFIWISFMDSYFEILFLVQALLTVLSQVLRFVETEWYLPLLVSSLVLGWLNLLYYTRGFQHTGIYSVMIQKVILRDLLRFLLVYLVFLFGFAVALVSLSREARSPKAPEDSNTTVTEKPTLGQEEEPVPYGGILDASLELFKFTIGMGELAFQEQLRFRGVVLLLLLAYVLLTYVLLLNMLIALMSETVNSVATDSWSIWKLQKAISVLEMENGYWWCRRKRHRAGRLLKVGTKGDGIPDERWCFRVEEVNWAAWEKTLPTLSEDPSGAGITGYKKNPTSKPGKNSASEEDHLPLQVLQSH
Excerpt: FIG. 11 presents a graph of infarct size as a percent of risk area in mice that received topical probenecid application (empty bars) or sham treatments (hatched bars).
as §1, §2

[5] = biological target: T2, TRPV1 (Mus musculus, UniProt Q704Y3); test: Topical capsaicin before ischemia/reperfusion in wild-type versus TRPV1 knock-out mice, infarct size; format: in vivo; conditions: capsaicin topically to the abdomen prior to ischemia and reperfusion, compared to TRPVKO mice
T2 construct: data from wild-type mice topically treated with capsaicin administered to the abdomen; from tissue; host or cells: living mice; skin nociceptors (C-fibers) of the abdomen
T2 sequence (Q704Y3 whole entry, the tested form may be a part): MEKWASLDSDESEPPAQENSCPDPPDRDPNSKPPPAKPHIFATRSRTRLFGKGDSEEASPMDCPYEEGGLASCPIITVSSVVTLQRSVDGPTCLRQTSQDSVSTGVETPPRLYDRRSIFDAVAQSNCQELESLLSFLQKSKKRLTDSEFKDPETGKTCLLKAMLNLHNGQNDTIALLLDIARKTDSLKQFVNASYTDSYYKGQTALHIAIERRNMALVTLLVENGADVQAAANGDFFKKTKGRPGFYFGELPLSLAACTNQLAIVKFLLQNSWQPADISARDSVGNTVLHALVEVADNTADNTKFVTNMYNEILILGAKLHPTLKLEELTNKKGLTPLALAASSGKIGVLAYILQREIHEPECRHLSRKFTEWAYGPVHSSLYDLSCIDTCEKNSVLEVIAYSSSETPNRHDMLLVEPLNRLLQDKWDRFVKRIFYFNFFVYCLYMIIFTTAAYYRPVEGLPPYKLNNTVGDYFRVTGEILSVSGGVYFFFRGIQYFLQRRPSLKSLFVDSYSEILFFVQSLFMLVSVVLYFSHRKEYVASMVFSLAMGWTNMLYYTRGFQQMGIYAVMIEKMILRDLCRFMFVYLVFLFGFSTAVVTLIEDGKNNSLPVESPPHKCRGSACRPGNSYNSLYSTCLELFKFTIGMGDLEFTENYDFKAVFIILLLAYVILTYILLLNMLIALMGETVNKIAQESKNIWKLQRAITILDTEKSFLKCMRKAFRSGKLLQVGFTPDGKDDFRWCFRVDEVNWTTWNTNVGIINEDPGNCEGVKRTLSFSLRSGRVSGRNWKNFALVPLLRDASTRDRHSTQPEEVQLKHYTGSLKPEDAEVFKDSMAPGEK
Description: Infarct size as a percent of risk region is presented on the y-axis. The first bar presents data from wild-type mice topically treated with capsaicin administered to the abdomen prior to surgical induction of ischemia and reperfusion (WT, Capsaicin, hatched bar). The second bar presents data from TRPV 1 knockout mice topically treated with capsaicin administered to the abdomen prior to surgical induction of ischemia and reperfusion (TRPVKO, Capsaicin, dotted bar). The third bar presents data from TRPV 1 knockout mice subjected to sham treatment prior to surgical induction of ischemia and reperfusion (TRPVKO No capsaicin, empty bar).

[6] = system: murine ischemia/reperfusion model of myocardial infarction; test: Topical capsaicin during ischemia or after reperfusion, infarct size; format: in vivo, mice; conditions: p<0.01
[7] = system: murine ischemia/reperfusion model of myocardial infarction; test: Mouse ischemia/reperfusion model, topical capsaicin 15 min prior to coronary occlusion, infarct size; format: in vivo, mice

Structure (SMILES): CCN(CC)CC(=O)Nc1c(C)cccc1C [lidocaine]
- infarct size as a percent of risk region [1]: no significant cardioprotection relative to controls; also recorded: significantly higher percentage of risk region

Structure (SMILES): CC(C)NCC(O)COc1cccc2ccccc12 (stereo not drawn) [propanolol]
- Infarct size as a percentage of risk region [2]: significantly higher

Structure (SMILES): COc1ccc2c(c[n+](C)c3c4cc5c(cc4ccc23)OCO5)c1OC [chelerythrine]
- Infarct size as a percentage of risk region [3]: reduced inhibition of ischemia-related tissue damage

Structure (SMILES): CCCN(CCC)S(=O)(=O)c1ccc(C(=O)O)cc1 [probenecid]
- infarct size as a percent of risk region [4]: significantly reduced

Structure (SMILES): COc1cc(CNC(=O)CCCC/C=C/C(C)C)ccc1O [capsaicin, (6E)-N-[(4-Hydroxy-3-methoxyphenyl)methyl]-8-methyl-6-nonenamide]
- infarct size as a percent of risk region [5]: reduced myocardial infarct size
- infarct size as a percent of risk area ([6]; topical capsaicin application after reperfusion (postCON) versus sham): significantly reduces infarct size
- infarct size as a percent of risk area ([6]; topical capsaicin application during ischemia (conditioning) versus sham): significantly reduces infarct size
- reduction of infarct size ([7]; remote pre-conditioning, stimulus given 15 minutes prior to the ischemia, 45 min coronary occlusion, versus sham, n=6): 85%
- Infarct size as a percent of the risk region ([7]; remote pre-treatment prior to ischemia/reperfusion versus sham, P<0.01): substantial reduction in infarct size
